Results reported in US4235666A, “1,2,3,4,4a,9a-Hexahydro-9,10-anthracene-dione, its preparation and its application to the delignification of lignocellulosic materials” (Produits Chimiques Ugine Kuhlmann, priority 1978, dated 1980).
Entries after “also recorded” stand apart in the source; their conditions may differ. Like-named read-outs stand apart in the source and are kept apart here.

Key:
Parameters in all cases: species or system moorland maritime pine
[1] = Mechanical characteristics of crude pulps from Kraft cooking, refined at 40° SR; details: for Index of rupture / Index of tearing / Length of rupture / Resistance to bending: 0.5% adjuvant, 40° SR
Protocol: (§1) The raw pulps for reference and those obtained with 0.5% of adjuvant in the cooking are refined in a Jokro mill.
(§2) Sheets for physical tests are produced on a Rapid Kothen mold. Their weight per m^2 is about 70 g.
(§3) The following mechanical characteristics are determined:
(§4) Length of break: AFNOR NFQ 03004 standard
(§5) Index of splitting or cracking: AFNOR NFQ 03014 standard
(§6) Tearing index: AFNOR NFQ 03011 standard
(§7) Resistance to bending or folding: AFNOR NFQ 03001 standard
After cooking, the same operations as those described in Example 9 are carried out on the pulps and the cooking liquors.
A comparative test with 0.5% of anthraquinone is effected under the same operational conditions as in Example 11. The mechanical characteristics of the pulps obtained are compared with those of a Kraft pulp for reference (Table VII).
Mechanical characteristics of the crude pulps refined at
40° SR Kraft cooking with 0.5% of adjuvant

[2] = Kraft cooking (caustic soda-sulfuric liquor) with adjuvant
Protocol: Shavings from moorland maritime pine are subjected to cooking in an autoclave with a caustic soda-sulfuric liquor under the following conditions:
Proportion of active alkali: 22% by weight with respect to the dry vegetable material,
Sulfidity: 25% with respect to the active alkali,
Ratio liquor/vegetable material: 4
Temperature of heating: 170° C.
Time taken to arrive at the heating temperature: 90 min.,
Time of heating: 120 min.
Amount of adjuvant: 0-0.1%-0.5%-1% by weight with respect to the dry vegatable material.
After cooking, the same operations as those described in Example 9 are carried out on the pulps and the cooking liquors. […]

[3] = Caustic soda cooking (delignification) with adjuvant; details: for Kappa index: NFT 12018
Protocol: Shavings of moorland maritime pine are subjected to heating in an autoclave with a caustic soda liquor. The cooking conditions are as follows:
Amount of caustic soda: 22% by weight with respect to the dry vegetable material.
Ratio of liquor/vegetable material: 4
Temperature of cooking: 170° C.
Time in which the cooking temperature
Time of cooking: 90 minutes
Amount of adjuvant: 0-0.1%-0.5%-1% by weight with respect to the dry vegetable material
After cooking, the pulps obtained are washed, disintegrated on a 3 mm grid (Vewerk grader or sorter).
The crude yield and the yield of sorted pulp are determined on the pulps, and the Kappa index according to French standard NFT 12018 are determined on the raw pulps.
The pH and the consumption of caustic soda are determined on the liquors after cooking.
A comparative test with 0.5% of anthraquinone was carried out under the same operational conditions as in Example 9.

[4] = Mechanical characteristics of raw pulps from caustic soda cooking, refined at 40° SR; details: for Index of rupture / Index of tearing / Length of rupture / Resistance to bending: 0.5% adjuvant, 40° SR
Protocol: as §1, §2, §3, §4, §5, §6, §7
The mechanical characteristics of the raw or unwashed pulps obtained after heating with caustic soda in the presence of 0.5% of adjuvant are compared with those of a conventional Kraft pulp (Table IV).
Mechanical characteristics of raw pulps refined at
40° SR caustic soda cooking with 0.5% of adjuvant

## O=C1c2ccccc2C(=O)C2CCCCC12 (stereo not drawn) [6 HAD, 1,2,3,4,4a,9a-hexahydro-9,10-anthracene-dione]
[1]
  mechanical characteristics / degradation of pulps: more favorable than that of anthraquinone
[1]; Kraft cooking
  Index of rupture: 5.55
  Index of tearing: 847
  Length of rupture: 7,000 m
  Resistance to bending: 1,917
[2]
  effect on delignification, Kappa index and yield: enables the Kappa index of the pulps to be appreciably lowered without alteration of the mechanical properties; also recorded: With identical Kappa indexes, yields greater than those of the Kraft process referred to can be obtained; also recorded: increases the kinetics and the selectivity of the delignification; also recorded: decrease of the Kappa index of the pulps without reduction of the yield of the cooking
[2]; 0.1% adjuvant
  % Effective alkali consumed/wood: 17.5%
  Classified yield: 44.3%
  Crude yield: 44.6%
  Kappa index: 27.4
[2]; 0.5% adjuvant
  % Effective alkali consumed/wood: 17.9%
  Classified yield: 44.5%
  Crude yield: 44.8%
  Kappa index: 24.2
[2]; 1% adjuvant
  % Effective alkali consumed/wood: 18.2%
  Classified yield: 44.3%
  Crude yield: 44.4%
  Kappa index: 22.0
[3]
  effect on delignification: has the same effect as the anthraquinone
[3]; 0.1% adjuvant
  % Caustic soda consumed/wood: 16.9%
  Classified yield: 45.7%
  Crude yield: 46.2%
  Kappa index: 51.7
[3]; 0.5% adjuvant
  % Caustic soda consumed/wood: 17.9%
  Classified yield: 45.5%
  Crude yield: 45.8%
  Kappa index: 33.4
[3]; 1% adjuvant
  % Caustic soda consumed/wood: 18.1%
  Classified yield: 45.5%
  Crude yield: 45.7%
  Kappa index: 28.0
[3]; listed as 1,2,3,4,4a,9a-hdxahydro9,10-anthracene-dione
  effect on delignification: accelerates the delignification and makes it more selective
[4]
  Index of rupture: 4.82
  Index of tearing: 922
  Length of rupture: 7,030 m
  Resistance to bending: 1,846
[4]; compared with conventional Kraft pulp
  quality / mechanical properties of pulps: very near to the quality of the conventional Kraft pulp; also recorded: mechanical properties similar to those of Kraft pulps with a similar yield and Kappa indexes

## O=C1c2ccccc2C(=O)c2ccccc21 [Anthraquinone, anthraquinone, reference compound]
[1]; Kraft cooking
  mechanical characteristics / degradation of pulps: inferior mechanical characteristics; also recorded: a relatively large degradation is observed
  Index of rupture: 4.48
  Index of tearing: 808
  Length of rupture: 5,850 m
  Resistance to bending: 905
[2]; 0.5% adjuvant
  % Effective alkali consumed/wood: 17.4%
  Classified yield: 43.8%
  Crude yield: 44%
  Kappa index: 24.3
[3]; 0.5% adjuvant
  % Caustic soda consumed/wood: 17.5%
  Classified yield: 46.2%
  Crude yield: 46.8%
  Kappa index: 32.2
[4]
  Index of rupture: 5.07
  Index of tearing: 813
  Length of rupture: 7,230 m
  Resistance to bending: 945
